Source: patent publication US8076352B2, “Administration of carboline derivatives useful in the treatment of cancer and other diseases” (PTC Therapeutics, Inc., priority 2004, dated 2011)

These compounds were tested on hypoxia-inducible endogenous VEGF expression in HeLa cells (assay: Hypoxia-inducible endogenous VEGF expression, VEGF ELISA of conditioned media (dose-response EC50)). Conditions: HeLa cells, hypoxic conditions (1% O2).
Assay type: cell-based
Description: The ability of the compounds of the invention to modulate hypoxia-inducible endogenous VEGF expression may be analyzed as follows. VEGF protein levels may be monitored by an ELISA assay (R&D Systems). Briefly, HeLa cells may be cultured for 24-48 hours under hypoxic conditions (1% O2, 5% CO2, balanced with nitrogen) in the presence or absence of a compound of the invention. The conditioned media may then be assayed by ELISA, and the concentration of VEGF calculated from the standard ELISA curve of each assay.
A dose-response analysis may be performed using the ELISA assay and conditions described above. The conditions for the dose-response ELISA are analogous to those described above. A series of, e.g., seven different concentrations may be analyzed. […] Dose-response curves may be plotted using percentage inhibition versus concentration of the compound, and EC50 and CC50 values may be generated for each compound with the maximal inhibition set as 100% and the minimal inhibition as 0%.
Cc1ccc(C2c3[nH]c4ccc(Br)cc4c3CCN2C(=O)Oc2ccc(F)cc2)cc1 (stereo not drawn) [Compound 403] was tested, and the EC50 was < 0.008 µM.
With COc1ccc(C2c3[nH]c4ccc(Cl)cc4c3CCN2C(=O)Oc2ccc(F)cc2)cc1 (stereo not drawn) [Compound 410] the EC50 was < 0.008 µM.

Same assay, conditions: Homo sapiens, HeLa cells under hypoxic conditions
With CCOC(=O)N1CCc2c([nH]c3ccc(Cl)cc23)C1c1ccc(OCCCn2cncn2)cc1 (stereo not drawn) [Compound 390] the EC50 was < 0.008 µM.
Work on CCCOC(=O)N1CCc2c([nH]c3ccc(Cl)cc23)C1c1ccc([N+](=O)[O-])cc1 (stereo not drawn) [Compound 66] yielded an EC50 of 0.008 to 0.04 µM.
CC(C)COC(=O)N1CCc2c([nH]c3ccc(Cl)cc23)C1c1ccccc1 (stereo not drawn) [Compound 122] gave an EC50 of 0.008 to 0.04 µM.
For CC(C)c1ccc(C2c3[nH]c4ccc(Cl)cc4c3CCN2C(=O)OCCCl)cc1 (stereo not drawn) [Compound 18], the EC50 was < 0.008 µM.
COc1ccc(C2c3[nH]c4ccc(Cl)cc4c3CCN2C(=O)OC(C)Cl)cc1 (stereo not drawn) [Compound 182] gave an EC50 of 0.2 to 1 µM.
Compound O=C(NC1CCCCC1)N1CCc2c([nH]c3ccc(Br)cc23)C1c1cccc(Cl)c1 (stereo not drawn) [Compound 140] has an EC50 of 0.04 to 0.2 µM.
COc1ccc2c3c([nH]c2c1)C(c1ccccc1)NCC3 (stereo not drawn) [Compound 321] was tested, and the EC50 was > 1 µM.
Clc1cccc(C2NCCc3c2[nH]c2ccc(Br)cc32)c1 (stereo not drawn) [Compound 137] gave an EC50 of 0.04 to 0.2 µM.
CCCOC(=O)N1CCc2c([nH]c3ccc(Cl)cc23)C1c1ccc(Br)cc1 (stereo not drawn) [Compound 41] was tested, and the EC50 was < 0.008 µM.
For COc1ccc(C2c3[nH]c4ccc(Cl)cc4c3CCN2C(=O)Nc2ccc(F)cc2)cc1 (stereo not drawn) [Compound 179], the EC50 was 0.2 to 1 µM.
CCOC(=O)N1CCc2c([nH]c3ccc(Cl)cc23)C1c1ccc([N+](=O)[O-])cc1 (stereo not drawn) [#74] showed an EC50 of 0.008 to 0.04 µM.
For CCOC(=O)N1CCc2c([nH]c3ccc(Cl)cc23)C1c1ccc(OCCN2CCOCC2)cc1 (stereo not drawn) [Compound 279, 6-Chloro-1-[4-(2-morpholin-4-yl-ethoxy)-phenyl]-1,3,4,9-tetrahydro-b-carboline-2-carboxylic acid ethyl ester], the EC50 was < 0.008 µM.
COC(=O)N1CCc2c([nH]c3ccc(Cl)cc23)C1c1ccccc1F (stereo not drawn) [Compound 108] gave an EC50 of 0.008 to 0.04 µM.
COC(=O)N1CCc2c([nH]c3ccc(OCc4ccccc4)cc23)C1c1ccccc1 (stereo not drawn) [Compound 293] was tested, and the EC50 was > 1 µM.
For CCC(=O)N1CCc2c([nH]c3ccc(Cl)cc23)C1c1ccc(OC)cc1 (stereo not drawn) [Compound 143], the EC50 was 0.04 to 0.2 µM.
With CCOC(=O)N1CCc2[nH]c3ccc(Br)cc3c2C1 [Compound 243] the EC50 was > 1 µM.
With CCOC(=O)N1CCc2c([nH]c3ccccc23)C1c1ccc(OC)cc1 (stereo not drawn) [Compound 235] the EC50 was > 1 µM.
With Clc1ccc2[nH]c3c(c2c1)CCN(Cc1ccccc1)C3c1cccnc1 (stereo not drawn) [Compound 276] the EC50 was > 1 µM.
With COc1ccc(C2c3[nH]c4ccc(Cl)cc4c3CCN2C(=O)C(C)OC(C)=O)cc1 (stereo not drawn) [Compound 370] the EC50 was < 0.008 µM.
Fc1ccc2[nH]c3c(c2c1)CCNC3c1cccc(Cl)c1 (stereo not drawn) [Compound 253] was tested, and the EC50 was > 1 µM.
With COc1ccc(C2c3[nH]c4ccccc4c3CCN2C(=S)NC2CCCCC2)cc1 (stereo not drawn) [Compound 312] the EC50 was > 1 µM.
In the case of CC(C)c1ccc(C2c3[nH]c4ccc(Br)cc4c3CCN2C(=O)Oc2ccc(Cl)cc2)cc1 (stereo not drawn) [Compound 354], the EC50 is reported as < 0.008 µM.
With COC(=O)N1CCc2c([nH]c3ccc(Cl)cc23)C1c1ccc(OC)cc1 (stereo not drawn) [Compound 43] the EC50 was < 0.008 µM.
In the case of O=C(OCCCl)N1CCc2c([nH]c3ccc(Cl)cc23)C1c1ccc(C(F)(F)F)cc1 (stereo not drawn) [Compound 33], the EC50 is reported as < 0.008 µM.
For CCOC(=O)N1CCc2c([nH]c3ccc(Br)cc23)C1c1ccc(Cl)cc1 (stereo not drawn) [Compound 4], the EC50 was < 0.008 µM.
In the case of Oc1ccc(Cl)cc1C1NCCc2c1[nH]c1ccc(Br)cc21 (stereo not drawn) [Compound 381], the EC50 is reported as > 1 µM.
For CCOC(=O)N1CCc2c([nH]c3ccc(Br)cc23)C1c1cc(F)cc(F)c1 (stereo not drawn) [Compound 64], the EC50 was 0.008 to 0.04 µM.
For COc1ccc(C2NCCc3c2[nH]c2ccc(F)cc32)cc1 (stereo not drawn) [Compound 315], the EC50 was > 1 µM.
COC(=O)N1CCc2c([nH]c3ccc(Cl)cc23)C1c1ccc(Cl)cc1 (stereo not drawn) [Compound 70] showed an EC50 of 0.008 to 0.04 µM.
COc1ccc(C2c3[nH]c4ccc(Cl)cc4c3CCN2C(=O)N2CCOCC2)cc1 (stereo not drawn) [Compound 334] was tested, and the EC50 was > 1 µM.
CCNC(=S)N1CCc2c([nH]c3ccc(Cl)cc23)C1c1ccc(OCc2ccccc2)cc1 (stereo not drawn) [Compound 206] gave an EC50 of 0.2 to 1 µM.
In the case of CC(C)NC(=S)N1CCc2c([nH]c3ccc(Br)cc23)C1c1cccc(Cl)c1 (stereo not drawn) [Compound 202], the EC50 is reported as 0.2 to 1 µM.
CCOC(=O)N1CCc2c([nH]c3ccc(Br)cc23)C1c1ccccc1 (stereo not drawn) [Compound 27] was tested, and the EC50 was < 0.008 µM.
Compound ON1CCc2c([nH]c3ccc(Br)cc23)C1c1ccc(Cl)cc1 (stereo not drawn) [Compound 81] has an EC50 of 0.008 to 0.04 µM.
For COC(=O)N1CCc2c([nH]c3ccc(Cl)cc23)C1c1cc(F)cc(F)c1 (stereo not drawn) [Compound 92], the EC50 was 0.008 to 0.04 µM.
Compound Clc1ccc2[nH]c3c(c2c1)CCNC3c1cccc(Cl)c1Cl (stereo not drawn) [Compound 168] has an EC50 of 0.04 to 0.2 µM.
CC(C)OC(=O)N1CCc2c([nH]c3ccc(Cl)cc23)C1c1cccc(Cl)c1 (stereo not drawn) [Compound 87] gave an EC50 of 0.008 to 0.04 µM.
With COCC(=O)N1CCc2c([nH]c3ccc(Br)cc23)C1c1ccc(C(C)C)cc1 (stereo not drawn) [Compound 187] the EC50 was 0.2 to 1 µM.

Same assay, conditions: Homo sapiens, HeLa cells, hypoxic conditions (1% O2)
For O=C(Oc1ccc(Cl)cc1)N1CCc2c([nH]c3ccc(Cl)cc23)C1c1ccc(NC2CCOCC2)cc1 (stereo not drawn) [Compound 440], the EC50 was < 0.008 µM.
With CCOC(=O)N1CCc2c([nH]c3ccc(Cl)cc23)C1c1ccc(C(=O)N2COCC2(C)C)cc1 (stereo not drawn) [Compound 441] the EC50 was 0.008 to 0.04 µM.
For CCOC(=O)N1CCc2c([nH]c3ccc(Cl)cc23)C1C(C)CC (stereo not drawn) [Compound 547], the EC50 was 0.2 to 1 µM.
O=C(Oc1ccc(Cl)cc1)N1CCc2c([nH]c3ccc(Cl)cc23)C1c1ccc(OCCCCNCCO)cc1 (stereo not drawn) [Compound 699] gave an EC50 of 0.008 to 0.04 µM.
Work on CCOC(=O)N1CCc2c([nH]c3ccc(Cl)cc23)C1c1ccc(OCCCN(C)C)cc1 (stereo not drawn) [Compound 458] yielded an EC50 of 0.008 to 0.04 µM.
Compound CNc1ncc(C2c3[nH]c4ccc(Cl)cc4c3CCN2C(=O)Oc2ccc(OC)cc2)cn1 (stereo not drawn) [Compound 517] has an EC50 of 0.2 to 1 µM.
For O=C(Oc1ccc(F)cc1)N1CCc2c([nH]c3ccc(Cl)cc23)C1c1ccc(OCC(O)CN2CCOCC2)cc1 (stereo not drawn) [Compound 638], the EC50 was < 0.008 µM.
CN1CCN(CCCCOc2ccc(C3c4[nH]c5ccc(Cl)cc5c4CCN3C(=O)Oc3ccc(F)cc3)cc2)CC1 (stereo not drawn) [Compound 740] gave an EC50 of 0.04 to 0.2 µM.
In the case of O=C(Oc1ccc(Cl)cc1)N1CCc2c([nH]c3ccc(Cl)cc23)C1c1ccc(O)cc1 (stereo not drawn) [Compound 577], the EC50 is reported as 0.04 to 0.2 µM.
Work on CN(C)c1ncc(C2c3[nH]c4ccc(Cl)cc4c3CCN2C(=O)Oc2ccc(Cl)cc2)cn1 (stereo not drawn) [Compound 475] yielded an EC50 of 0.04 to 0.2 µM.
Work on O=C(Oc1ccccc1Cl)N1CCc2c([nH]c3ccc(Cl)cc23)C1c1ccc(Cl)cc1 (stereo not drawn) [Compound 589] yielded an EC50 of 0.04 to 0.2 µM.
Work on O=C(Oc1ccc(F)cc1)N1CCc2c([nH]c3ccc(Cl)cc23)C1c1ccc(OCCCCCCNCCCn2ccnc2)cc1 (stereo not drawn) [Compound 779] yielded an EC50 of 0.04 to 0.2 µM.
With C=CCOc1ccc(C2c3[nH]c4ccc(Cl)cc4c3CCN2C(=O)Oc2ccc(F)cc2)cc1 (stereo not drawn) [Compound 409] the EC50 was < 0.008 µM.
In the case of O=C(Oc1ccc(F)cc1)N1CCc2c([nH]c3ccc(Cl)cc23)C1c1ccc(OCCCCCl)cc1 (stereo not drawn) [Compound 719], the EC50 is reported as < 0.008 µM.
With O=C(Oc1ccc(Cl)cc1)N1CCc2c([nH]c3ccc(Cl)cc23)C1c1ccc(OCCCCCCn2cncn2)cc1 (stereo not drawn) [Compound 791] the EC50 was < 0.008 µM.
Work on O=C(Oc1ccc(Cl)cc1)Oc1ccc(C2c3[nH]c4ccc(Cl)cc4c3CCN2C(=O)Oc2ccc(Cl)cc2)cc1 (stereo not drawn) [Compound 578] yielded an EC50 of 0.04 to 0.2 µM.
O=C(Oc1ccc(Cl)cc1)N1CCc2c([nH]c3ccc(Cl)cc23)C1c1ccc(OCCCn2ccnn2)cc1 (stereo not drawn) [Compound 417] was tested, and the EC50 was < 0.008 µM.
CCOC(=O)N1CCc2c([nH]c3ccc(Cl)cc23)C1c1ccc(C(N)=O)cc1 (stereo not drawn) [Compound 542] showed an EC50 of 0.2 to 1 µM.
In the case of CC(C)NCCCCCCOc1ccc(C2c3[nH]c4ccc(Cl)cc4c3CCN2C(=O)Oc2ccc(Cl)cc2)cc1 (stereo not drawn) [Compound 784], the EC50 is reported as < 0.008 µM.
Compound CCOC(=O)N1CCc2c([nH]c3ccc(Cl)cc23)C1CCc1ccccc1 (stereo not drawn) [Compound 511] has an EC50 of 0.04 to 0.2 µM.

Same assay, conditions: Homo sapiens, HeLa cells, hypoxic conditions (1% O2, 5% CO2)
Compound O=C(Oc1ccc(Cl)cc1)N1CCc2c([nH]c3ccc(Cl)cc23)C1c1ccc(OCC(O)CN2CCN(CCO)CC2)cc1 (stereo not drawn) [Compound 960] has an EC50 of 0.008 to 0.04 µM.
O=C(Oc1ccc(Cl)cc1)N1CCc2c([nH]c3ccc(Cl)cc23)C1c1ccc(OCCCN2CCSCC2)cc1 (stereo not drawn) [Compound 933] was tested, and the EC50 was < 0.008 µM.
For O=C(Oc1ccc(Cl)cc1)N1CCc2c([nH]c3ccc(Cl)cc23)C1c1ccc(OCC(O)Cn2cncn2)cc1 (stereo not drawn) [Compound 996], the EC50 was < 0.008 µM.
Work on CC(C)NCC(O)COc1ccc(C2c3[nH]c4ccc(Cl)cc4c3CCN2C(=O)Oc2ccc(Cl)cc2)cc1 (stereo not drawn) [Compound 977] yielded an EC50 of 0.04 to 0.2 µM.
Cc1ccc(OC(=O)N2CCc3c([nH]c4ccc(Cl)cc34)C2c2ccc(OCC3CCCN(C)C3)cc2)cc1 (stereo not drawn) [Compound 951] gave an EC50 of 0.008 to 0.04 µM.
Compound CN1CCN(CCCOc2ccc(C3c4[nH]c5ccc(Cl)cc5c4CCN3C(=O)Oc3ccc(Cl)cc3)cc2)CC1 (stereo not drawn) [Compound 961] has an EC50 of 0.008 to 0.04 µM.
For CCS(=O)(=O)Nc1ccc(C2c3[nH]c4ccc(Cl)cc4c3CCN2C(=O)Oc2ccc(Cl)cc2)cc1 (stereo not drawn) [Compound 958], the EC50 was 0.008 to 0.04 µM.
For CCN(CC)CC(O)COc1ccc(C2c3[nH]c4ccc(Cl)cc4c3CCN2C(=O)Oc2ccc(Cl)cc2)cc1 (stereo not drawn) [Compound 938], the EC50 was < 0.008 µM.
In the case of COCCN(C)CCCOc1ccc(C2c3[nH]c4ccc(Cl)cc4c3CCN2C(=O)Oc2ccc(F)cc2)cc1 (stereo not drawn) [Compound 992], the EC50 is reported as 0.04 to 0.2 µM.
For O=C(Oc1ccc(Cl)cc1)N1CCc2c([nH]c3ccc(Cl)cc23)C1c1ccc(OCCNc2nccs2)cc1 (stereo not drawn) [#841], the EC50 was < 0.008 µM.
COc1ccc(OC(=O)N2CCc3c([nH]c4ccc(Cl)cc34)C2c2ccc(OCCCn3ccnc3)cc2)cc1 (stereo not drawn) [Compound 920] was tested, and the EC50 was < 0.008 µM.
In the case of O=C(Oc1ccc(Cl)cc1)N1CCc2c([nH]c3ccc(Cl)cc23)C1c1ccc(OCCCn2ccnc2)cc1 (stereo not drawn) [Compound 917], the EC50 is reported as < 0.008 µM.
